Measurements reported in patent publication US20240208992A1, “MACROCYCLES AS CFTR MODULATORS” (Idorsia Pharmaceuticals Ltd, priority 2021, published 2024).

Molecular target: human F508del-CFTR (Homo sapiens, UniProt P13569, DEL508-508)
Assay: F508del-CFTR cell surface expression (corrector activity), DiscoveRx ß-galactosidase complementation chemiluminescence assay in recombinant U2OS cell line;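 further: U2OS cells co-expressing ProLink-tagged F508del-CFTR and a membrane-anchored enzyme acceptor, where more surface CFTR restores β-galactosidase activity measured by chemiluminescence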
Details: for EC50: EC50, F508del-CFTR cell surface expression, U2OS cells, 16h compound incubation, geomean values; for Emax: U2OS, in relation to Emax of corrector lumacaftor (=100%), arithmetic mean values

human F508del-CFTR, sequence (P13569 with tags, fused parts or gaps DEL508-508): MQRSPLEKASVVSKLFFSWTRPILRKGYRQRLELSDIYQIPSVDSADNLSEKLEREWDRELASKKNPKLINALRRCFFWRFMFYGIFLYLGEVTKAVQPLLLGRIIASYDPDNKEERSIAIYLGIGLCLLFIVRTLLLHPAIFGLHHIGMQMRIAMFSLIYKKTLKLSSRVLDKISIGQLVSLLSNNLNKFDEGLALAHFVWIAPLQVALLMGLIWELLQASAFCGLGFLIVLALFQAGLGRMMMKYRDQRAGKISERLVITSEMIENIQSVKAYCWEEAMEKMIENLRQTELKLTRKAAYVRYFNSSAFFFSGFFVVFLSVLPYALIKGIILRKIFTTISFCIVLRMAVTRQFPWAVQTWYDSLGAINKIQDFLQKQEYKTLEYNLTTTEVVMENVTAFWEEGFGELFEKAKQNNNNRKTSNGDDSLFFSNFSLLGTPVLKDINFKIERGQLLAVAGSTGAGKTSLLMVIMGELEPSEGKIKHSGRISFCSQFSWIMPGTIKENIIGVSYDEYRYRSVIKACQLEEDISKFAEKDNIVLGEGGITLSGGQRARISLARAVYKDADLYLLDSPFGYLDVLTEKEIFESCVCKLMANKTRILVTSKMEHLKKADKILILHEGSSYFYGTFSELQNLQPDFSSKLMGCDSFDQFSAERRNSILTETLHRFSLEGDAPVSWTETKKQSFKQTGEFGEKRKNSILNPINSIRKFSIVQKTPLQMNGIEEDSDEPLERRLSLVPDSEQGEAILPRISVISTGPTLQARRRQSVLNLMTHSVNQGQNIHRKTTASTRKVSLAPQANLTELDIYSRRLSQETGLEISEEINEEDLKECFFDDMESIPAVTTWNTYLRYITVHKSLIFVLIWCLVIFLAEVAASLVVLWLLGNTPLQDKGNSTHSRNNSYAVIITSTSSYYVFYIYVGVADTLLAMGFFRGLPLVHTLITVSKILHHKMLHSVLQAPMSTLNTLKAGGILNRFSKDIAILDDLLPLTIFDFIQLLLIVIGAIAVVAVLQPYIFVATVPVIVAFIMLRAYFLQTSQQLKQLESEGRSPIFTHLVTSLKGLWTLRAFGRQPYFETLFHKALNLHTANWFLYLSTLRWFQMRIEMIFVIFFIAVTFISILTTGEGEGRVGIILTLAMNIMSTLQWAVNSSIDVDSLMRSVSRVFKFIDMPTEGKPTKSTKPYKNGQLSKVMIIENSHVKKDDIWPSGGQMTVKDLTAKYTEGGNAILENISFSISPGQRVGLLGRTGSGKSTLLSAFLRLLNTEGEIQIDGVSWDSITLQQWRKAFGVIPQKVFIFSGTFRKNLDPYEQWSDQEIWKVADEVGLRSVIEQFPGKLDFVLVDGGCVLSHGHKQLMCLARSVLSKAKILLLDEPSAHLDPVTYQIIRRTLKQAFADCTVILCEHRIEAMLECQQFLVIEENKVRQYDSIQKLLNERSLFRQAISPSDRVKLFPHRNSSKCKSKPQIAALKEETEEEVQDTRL

| Structure (SMILES) | EC50 [nM] | Emax [%] |
| --- | --- | --- |
| Cc1cc2ccc3c(c2o1)C(=O)N[C@H](C(=O)NCCc1noc(C2CC2)n1)CC(=O)N(C)[C@@H](CC(C)C)C(=O)N(C)CC(=O)N[C@H](Cc1ccccc1)CO3 [Example 561, (8R,14S,18S)-8-benzyl-N-(2-(5-cyclopropyl-1,2,4-oxadiazol-3-yl)ethyl)-14-isobutyl-2,12,15-trimethyl-10,13,16,20-tetraoxo-7,8,9,10,11,12,13,14,15,16,17,18,19,20-tetradecahydrobenzofuro[7,6-p][1]oxa[4,7,10,14]tetraazacycloheptadecine-18-carboxamide] | 437 | 215 |
| Cc1cc2ccc3c(c2o1)C(=O)N[C@H](C(=O)NCCc1nc(C2CC2)no1)CC(=O)N(C)[C@@H](CC(C)C)C(=O)N(C)CC(=O)N[C@H](Cc1ccccc1)CO3 [Example 562, (8R,14S,18S)-8-benzyl-N-(2-(3-cyclopropyl-1,2,4-oxadiazol-5-yl)ethyl)-14-isobutyl-2,12,15-trimethyl-10,13,16,20-tetraoxo-7,8,9,10,11,12,13,14,15,16,17,18,19,20-tetradecahydrobenzofuro[7,6-p][1]oxa[4,7,10,14]tetraazacycloheptadecine-18-carboxamide] | 444 | 282 |
| CC(C)C[C@H]1C(=O)N2CCCC[C@@H]2C(=O)N[C@H](Cc2ccccc2)COc2cnc3cccc(F)c3c2C(=O)N[C@H](C(=O)NCCc2noc(C3CC3)n2)CC(=O)N1C [Example 563, (9S,13S,19aR,22R)-22-benzyl-N-(2-(5-cyclopropyl-1,2,4-oxadiazol-3-yl)ethyl)-6-fluoro-13-isobutyl-12-methyl-7,11,14,20-tetraoxo-7,8,9,10,11,12,13,14,17,18,19,19a,20,21,22,23-hexadecahydro-16H-pyrido[2′,11:6,7][1]oxa[4,7,10,14]tetraazacycloheptadecino[17,16-c]quinoline-9-carboxamide] | 125 | 330 |
| COc1nc(C)cc2c1C(=O)N[C@H](C(=O)NCCc1noc(C3CC3)n1)CC(=O)N(C)[C@@H](CC(C)C)C(=O)N1CCCC[C@@H]1C(=O)N[C@H](Cc1ccccc1)CO2 [Example 567, (7S,11S,17aR,20R)-20-benzyl-N-(2-(5-cyclopropyl-1,2,4-oxadiazol-3-yl)ethyl)-11-isobutyl-4-methoxy-2,10-dimethyl-5,9,12,18-tetraoxo-5,6,7,8,9,10,11,12,15,16,17,17a,18,19,20,21-hexadecahydro-14H-dipyrido[2,1-f:3′,4′-p][1]oxa[4,7,10,14]tetraazacycloheptadecine-7-carboxamide] | 384 | 307 |
| COc1nccc2c1C(=O)N[C@H](C(=O)NCCc1noc(C3CC3)n1)CC(=O)N(C)[C@@H](CC(C)C)C(=O)N(C)[C@H](CCc1nc(-c3ccccc3)no1)C(=O)N[C@H](Cc1ccccc1)CO2 [Example 571, (3R,6R,9S,13S)-3-benzyl-N-(2-(5-cyclopropyl-1,2,4-oxadiazol-3-yl)ethyl)-9-isobutyl-16-methoxy-7,10-dimethyl-5,8,11,15-tetraoxo-6-(2-(3-phenyl-1,2,4-oxadiazol-5-yl)ethyl)-2,3,4,5,6,7,8,9,10,11,12,13,14,15-tetradecahydropyrido[3,4-p][1]oxa[4,7,10,14]tetraazacycloheptadecine-13-carboxamide] | 47 | 347 |
| COc1cccc(CCNC(=O)[C@@H]2CC(=O)N(C)[C@@H](CC(C)C)C(=O)N(C)[C@@H](C)C(=O)N[C@H](Cc3ccccc3)COc3cnc4ccccc4c3C(=O)N2)c1 [Example 572, (3S,7S,10S,13R)-13-benzyl-7-isobutyl-N-(3-methoxyphenethyl)-6,9,10-trimethyl-1,5,8,11-tetraoxo-1,2,3,4,5,6,7,8,9,10,11,12,13,14-tetradecahydro-[1]oxa[4,7,10,14]tetraazacycloheptadecino[17,16-c]quinoline-3-carboxamide] | 701 | 200 |
| COc1nccc2c1C(=O)N[C@H](C(=O)NCCc1noc(C3CC3)n1)CC(=O)N(C)[C@@H](CC(C)C)C(=O)N(C)[C@@H](CCc1nc(-c3ccccc3)no1)C(=O)N[C@H](Cc1ccccc1)CO2 [Example 577, (3R,6S,9S,13S)-3-benzyl-N-(2-(5-cyclopropyl-1,2,4-oxadiazol-3-yl)ethyl)-9-isobutyl-16-methoxy-7,10-dimethyl-5,8,11,15-tetraoxo-6-(2-(3-phenyl-1,2,4-oxadiazol-5-yl)ethyl)-2,3,4,5,6,7,8,9,10,11,12,13,14,15-tetradecahydropyrido[3,4-p][1]oxa[4,7,10,14]tetraazacycloheptadecine-13-carboxamide] | 600 | 268 |

Results, then the compound that gave them:

| EC50 [nM] | Emax [%] | Structure (SMILES) |
| --- | --- | --- |
| 49 | 298 | Cc1cc(CCNC(=O)[C@@H]2CC(=O)N(C)[C@@H](CC(C)C)C(=O)N(C)[C@H](COCc3ccccc3)C(=O)N[C@H](Cc3ccccc3)COc3cnc4ccccc4c3C(=O)N2)on1 [Example 564, (3S,7S,10R,13R)-13-benzyl-10-((benzyloxy)methyl)-7-isobutyl-6,9-dimethyl-N-(2-(3-methylisoxazol-5-yl)ethyl)-1,5,8,11-tetraoxo-1,2,3,4,5,6,7,8,9,10,11,12,13,14-tetradecahydro-[1]oxa[4,7,10,14]tetraazacycloheptadecino[17,16-c]quinoline-3-carboxamide] |
| 338 | 254 | COc1nc(C)cc2c1C(=O)N[C@H](C(=O)NCCc1cc(C3CC3)on1)CC(=O)N(C)[C@@H](CC(C)C)C(=O)N1CCCC[C@@H]1C(=O)N[C@H](Cc1ccccc1)CO2 [Example 565, (7S,11S,17aR,20R)-20-benzyl-N-(2-(5-cyclopropylisoxazol-3-yl)ethyl)-11-isobutyl-4-methoxy-2,10-dimethyl-5,9,12,18-tetraoxo-5,6,7,8,9,10,11,12,15,16,17,17a,18,19,20,21-hexadecahydro-14H-dipyrido[2,1-f:3′,4′-p][1]oxa[4,7,10,14]tetraazacycloheptadecine-7-carboxamide] |
| 703 | 278 | COCC[C@@H]1C(=O)N[C@H](Cc2ccccc2)COc2cnc3ccccc3c2C(=O)N[C@H](C(=O)NCCc2cc(C)no2)CC(=O)N(C)[C@@H](CC(C)C)C(=O)N1C [Example 566, (3S,7S,10R,13R)-13-benzyl-7-isobutyl-10-(2-methoxyethyl)-6,9-dimethyl-N-(2-(3-methylisoxazol-5-yl)ethyl)-1,5,8,11-tetraoxo-1,2,3,4,5,6,7,8,9,10,11,12,13,14-tetradecahydro-[1]oxa[4,7,10,14]tetraazacycloheptadecino[17,16-c]quinoline-3-carboxamide] |
| 391 | 238 | COc1nc(C)cc2c1C(=O)N[C@H](C(=O)NCCc1cc(C(F)(F)F)no1)CC(=O)N(C)[C@@H](CC(C)C)C(=O)N1CCCC[C@@H]1C(=O)N[C@H](Cc1ccccc1)CO2 [Example 568, (7S,11S,17aR,20R)-20-benzyl-11-isobutyl-4-methoxy-2,10-dimethyl-5,9,12,18-tetraoxo-N-(2-(3-(trifluoromethyl)isoxazol-5-yl)ethyl)-5,6,7,8,9,10,11,12,15,16,17,17a,18,19,20,21-hexadecahydro-14H-dipyrido[2,1-f:3′,4′-p][1]oxa[4,7,10,14]tetraazacycloheptadecine-7-carboxamide] |
| 374 | 323 | COc1nccc2c1C(=O)N[C@H](C(=O)NCCc1cc(C)no1)CC(=O)N(C)[C@@H](CC(C)C)C(=O)N1CCN(CC(C)C)C[C@@H]1C(=O)N[C@H](Cc1ccccc1)CO2 [Example 570, (7S,11S,20R,22aR)-20-benzyl-2,7-diisobutyl-14-methoxy-8-methyl-N-(2-(3-methylisoxazol-5-yl)ethyl)-6,9,13,22-tetraoxo-1,3,4,6,7,8,9,10,11,12,13,19,20,21,22,22a-hexadecahydro-2H-pyrazino[2,1-f]pyrido[3,4-p][1]oxa[4,7,10,14]tetraazacycloheptadecine-11-carboxamide] |
| 423 | 306 | Cc1cc(CCNC(=O)[C@@H]2CC(=O)N(C)[C@@H](CC(C)C)C(=O)N(C)[C@H](C)C(=O)N[C@H](Cc3ccccc3)COc3cnc4ccccc4c3C(=O)N2)on1 [Example 573, (3S,7S,10R,13R)-13-benzyl-7-isobutyl-6,9,10-trimethyl-N-(2-(3-methylisoxazol-5-yl)ethyl)-1,5,8,11-tetraoxo-1,2,3,4,5,6,7,8,9,10,11,12,13,14-tetradecahydro-[1]oxa[4,7,10,14]tetraazacycloheptadecino[17,16-c]quinoline-3-carboxamide] |
| 308 | 319 | CC(C)C[C@H]1C(=O)N(C)[C@H](C)C(=O)N[C@H](Cc2ccccc2)COc2cnc3ccccc3c2C(=O)N[C@H](C(=O)NCCc2cc(C3CC3)no2)CC(=O)N1C [Example 574, (3S,7S,10R,13R)-13-benzyl-N-(2-(3-cyclopropylisoxazol-5-yl)ethyl)-7-isobutyl-6,9,10-trimethyl-1,5,8,11-tetraoxo-1,2,3,4,5,6,7,8,9,10,11,12,13,14-tetradecahydro-[1]oxa[4,7,10,14]tetraazacycloheptadecino[17,16-c]quinoline-3-carboxamide] |
| 53 | 319 | Cc1cc(CCNC(=O)[C@@H]2CC(=O)N(C)[C@@H](CC(C)C)C(=O)N(C)[C@H](CCOCc3ccccc3)C(=O)N[C@H](Cc3ccccc3)COc3cnc4ccccc4c3C(=O)N2)on1 [Example 578, (3S,7S,10R,13R)-13-benzyl-10-(2-(benzyloxy)ethyl)-7-isobutyl-6,9-dimethyl-N-(2-(3-methylisoxazol-5-yl)ethyl)-1,5,8,11-tetraoxo-1,2,3,4,5,6,7,8,9,10,11,12,13,14-tetradecahydro-[1]oxa[4,7,10,14]tetraazacycloheptadecino[17,16-c]quinoline-3-carboxamide] |
